Usually half-life stands for the time in which the quantity being followed falls by half. The low end stands for fast loss, the high end for slow loss. As a reminder, the clearance is a measure of how efficiently the substance is removed, as volume per time. The low end stands for a low capacity for elimination, the high end for a high capacity for elimination. Broadly, the AUC(0-t) is exposure summed from dosing to a finite time, without extrapolation to infinity. Usually Vd stands for a proportionality between amount in the body and measured concentration, not a real space. The low end stands for little distribution into tissue, the high end for wide distribution into tissue. What is called bioavailability is the share of a dose that reaches the circulation, judged against a reference dose that is usually intravenous. The low end stands for poor availability, the high end for good availability.

This note sets out measurements from ChEMBL document CHEMBL5042540, “Discovery of Pteridine-7(8H)-one Derivatives as Potent and Selective Inhibitors of Bruton's Tyrosine Kinase (BTK)” (J Med Chem, 2022).

Data set [1] can be described thus: in vivo. To be noted: Sprague-Dawley, rat, iv, 1 mg/kg.
The nature of data set [2]: in vivo. To be noted: Sprague-Dawley, rat, iv, 1 mg/kg. This is another data set of the same source.
Data set [3] can be described thus: in vivo. To be noted: Sprague-Dawley, rat, iv, 1 mg/kg. The source holds these as a separate data set.
Data set [4] in a line: in vivo. To be noted: Sprague-Dawley, rat, iv, 1 mg/kg. The source holds these as a separate data set.
Data set [5] in a line: in vivo. To be noted: Sprague-Dawley, rat, po, 10 mg/kg.
A short description of data set [6]: in vivo. To be noted: Sprague-Dawley, rat, po, 10 mg/kg. This is another data set of the same source.

Turning to `C=CC(=O)Nc1cccc(-n2c(=O)c(C3CCCCC3)nc3cnc(Nc4cccc(OCCOC)c4)nc32)c1`, the half-life in the data set “in vivo [1]” is 26.4 min. Moreover, the clearance in “in vivo [2]” is 58.2 mL/min/kg. The results for the AUC(0-t) in the data set “in vivo [3]” and in “in vivo [5]” were 290 ng·h/mL and 66.9 ng·h/mL, respectively. Also, in “in vivo [4]”, the Vd worked out at 1.16 L/kg. The molecule further returned a bioavailability in the data set “in vivo [6]” of 2.31%.
